# Test system: guinea pigs
# Assay: Effect on the flow rate of urine in guinea pigs, single or combined use, Experimental Example 4
# Format: in vivo, Hartley male guinea pigs
# From the text: Effect on the flow rate of urine by single or combined use of Compounds of Reference Examples, distigmine, prazosin, and tamsulosin was examined using Hartley male guinea pigs. Four to six Hartley male guinea pigs weighing about 350 g (SLC) were employed in each treated group. Guinea pigs were anesthetized with urethane, and held, and the bladder was exposed. Two polyethylene tubes (PE-100) were inserted into the bladder. One of the tubes was used in infusion of physiological saline, and the other used for measurement of the internal pressure of the bladder. Saline was infused continuously at a flow rate of 0.3 mL/min. The infusion was stopped at the time when intermittent urination was confirmed at least 3 times, and the whole saline in bladder was removed. Again, infusion was started, and stopped at the time when a rise of the pressure in bladder was confirmed immediately before urination. Excreted urine was weighed on an electronic force balance (HX-400, A&D). Analogue data of the internal pressure of the bladder and urine weight were input in an AD converter (MP-30, Biopac Systems) and the digital signal was analyzed by means of purpose-made software (Student lab pro 2.1.5, Biopac Systems). Sampling interval of the date was fixed at 0.1 second, and the value of urine weight was differentiated to determine the flow rate of urine. In order to remove data noise of the excretion volume and flow rate of urine, the data was adapted to a lowcut filter at 0.5 Hz.
# Measurement was made 2 times before administration of the test compound, and then the test compound was administered intravenously. Again, measurement was made 10 minutes after administration of the test compound.
# The average measured value before administration of the test compounds was regarded as the value before administration, and the rate of change of the values from the ante-administration to the post-administration was calculated to compare between the groups by means of the Dunnet's test.
structure (smiles),measurement,setting,value
"CN(CCCCCCN(C)C(=O)Oc1ccc[n+](C)c1)C(=O)Oc1ccc[n+](C)c1 [Distigmine, reference compound]",improvement of the flow rate of urine (in words),"conclusion from Tables 8 and 9, alone and in combination with α-blockers",poor and not enhanced even in combination with an α-blocker prazosin
same,Flow Rate (mL/sec) Ante-admn.,"guinea pig, distigmine 1.0 mg/kg i.v. group, before administration (Table 8)",0.25 ± 0.05 mL/s
same,Flow Rate (mL/sec) Post-admn.,"guinea pig, distigmine 1.0 mg/kg i.v., 10 minutes after administration (Table 8)",0.22 ± 0.05 mL/s
same,Improvement (%),"guinea pig, distigmine 1.0 mg/kg i.v., 10 minutes after administration, control DMSO (Table 8)",−8.31 ± 11.13%

# Reference: patent US8252814B2, “Agents and crystals for improving excretory potency of urinary bladder” (priority 1998, dated 2012)
